Measured values as given in patent US6479460B1, “Synthetic peptides and pseudopeptides having osteogenic activity and pharmaceutical compositions containing the same” (Yissum Research Development Company of the Hebrew …, priority 1996, dated 2002).
Where no end group is shown, it is not given here. [ ]: non-standard residue; d: D form. The star is where a group is joined. Biotin = O=C1N[C@H]2[C@H](CS[C@H]2CCCCC(=O)*)N1; Bpa = N[C@@H](Cc1ccc(C(=O)c2ccccc2)cc1)C(=O)O; ol = C-terminal alcohol (reduced C-terminus); Tyr(3-I) = N[C@@H](Cc1ccc(O)c(I)c1)C(=O)O; Desaminotyrosyl = O=C(CCc1ccc(O)cc1)*; Hexanoyl = CCCCCC(=O)*; Sar = CNCC(=O)O

How the values were obtained:
Type in all cases: cell-based
[1] = tested on: osteoblastic MC3T3 E1 cells; experiment: Proliferation assay, osteoblastic MC3T3 E1 cells; conditions: for Relative in vitro potency (95% confidence limit) MC3T3 E1 cells: analog concentration 10^−13M, mean cell number relative to positive control OGP(1-14) = 1.00
Excerpt: (§1) Some of the analogs were subjected to a dose response analysis.

[2] = tested on: fibroblastic NIH 3T3 cells; experiment: Proliferation assay, fibroblastic NIH 3T3 cells; conditions: for Relative in vitro potency (95% confidence limit) NIH 3T3 cells: analog concentration 10^−11M, mean cell number relative to positive control OGP(1-14) = 1.00
Excerpt: as §1

[3] = tested on: osteoblastic MC3T3 E1 and fibroblastic NIH 3T3 cells; experiment: Proliferation assay, text statements not split by cell line; conditions: in vitro, compared to OGP(1-14) or parent analog
Protocol: The effect of OGP analogs on osteoblastic MC3T3 E1 and fibroblastic NIH 3T3 cell proliferation was measured as before [Bab, I., et al (1992) EMBO J. 11:1867]. Some of the analogs were subjected to a dose response analysis. Otherwise the analog concentration was 10^−13M and 10^−11M in the MC3T3 E1 and NIH3T3 cell cultures, respectively. The mean cell number in triplicate culture wells was expressed as percent of a positive control triplicate dosed with OGP(1-14) (SEQ ID NO: 1). Experiments testing one dose per cell line were repeated at least four times and the activity of individual analogs expressed as the mean of results and 95% confidence limit obtained in these repetitive experiments.

Substance | Relative in vitro potency (95% confidence limit) MC3T3 E1 cells [1] | Relative in vitro potency (95% confidence limit) NIH 3T3 cells [2] | OGP-like proliferative activity (in words) [3] | activity compared to OGP(1-14) ([1]; MC3T3 E1 cells) | activity compared to OGP(1-14) ([2]; NIH3T3 cells)
Nα-Ac—OGP(12-14) (Ac-Phe-Gly-Gly) | 0.06 | 0.07 | essentially nil |  | 
Nα-biotinylcaproyl[Bpa^12]OGP(10-14) ({Biotin-Hexanoyl}-YG[Bpa]GG) [Nα-biotinylcaproyl-[BPA^12]OGP(10-14)] |  |  | remained unaltered |  | 
Tyr(m-I)-Gly-NH-CH(CH2C6H4(C(O)C6H5))C(O)-Gly-Gly ([Tyr(3-I)]G[Bpa]GG) [[Tyr^10(m-I),BPA^12]OGP(10-14)] | 0.80 | 0.85 | remained unaltered |  | 
Tyr-Gly-NH-CH(CH2C6H4(C(O)-C6H5))C(O)-Gly-Gly (YG[Bpa]GG) [[Bpa^12]OGP(10-14)] | 0.74 | 0.86 | only a minor effect on the OGP-like proliferative activity |  | 
[Ala^11]OGP(11-14) (AFGG) | 0.17 | 0.07 | essentially nil |  | 
[Gly^13ψ(CH2)2Gly^14]OGP(11-14) (GFGG; also: reduced ethylene bond ψ(CH2)2 between Gly13 and Gly14) | 0.15 | 0.08 | essentially nil |  | 
desamino[Tyr^10,Sar^11]OGP(10-14) [desamino[Tyr^10,Sar^11]OGP(10-14) (SEQ ID NO: 34)] | 0.16 | 0.14) |  |  | 
desamino[Tyr^10,Sar^13]OGP(10-14) ([Desaminotyrosyl]GF[Sar]G) | 0.15 | 0.11 |  |  | 
desamino[Tyr^10]OGP(10-13)—NH(CH2)2NH2 ([Desaminotyrosyl]GFG-{NH(CH2)2NH2}) | 0.18 | 0.17 |  |  | 
desamino[Tyr^10]OGP(10-13)—NHEt ([Desaminotyrosyl]GFG-NHEt; SMILES CCNC(=O)CNC(=O)[C@H](Cc1ccccc1)NC(=O)CNC(=O)CCc1ccc(O)cc1) | 0.19 | 0.20 |  |  | 
desamino[Tyr^10]OGP(10-14)—N(Me)2 ([Desaminotyrosyl]GFGG-{N(Me)2}) | 0.12 | 0.16 |  |  | 
desamino[Tyr^10]OGP(10-14)—NH2 ([Desaminotyrosyl]GFGG-NH2; SMILES NC(=O)CNC(=O)CNC(=O)[C@H](Cc1ccccc1)NC(=O)CNC(=O)CCc1ccc(O)cc1) | 0.20 | 0.16 |  |  | 
desamino[Tyr^10]OGP(10-14)—NHMe ([Desaminotyrosyl]GFGG-NHMe; SMILES CNC(=O)CNC(=O)CNC(=O)[C@H](Cc1ccccc1)NC(=O)CNC(=O)CCc1ccc(O)cc1) | 0.18 | 0.16 |  |  | 
desamino[Tyr^10]OGP(10-14)—OMe ([Desaminotyrosyl]GFGG-OMe; SMILES COC(=O)CNC(=O)CNC(=O)[C@H](Cc1ccccc1)NC(=O)CNC(=O)CCc1ccc(O)cc1) | 0.51 | 0.36 |  | higher than 50% | less than 50%
desamino[Tyr^10]OGP(10-14)—ol ([Desaminotyrosyl]GFGG-ol) | 0.24 | 0.28 |  |  | 
